According to patent publication US9096558B2, “N-sulfonylbenzamide compounds” (Pfizer Limited, priority 2010, dated 2015):
Structures can show the parent of a compound that is named as a salt.

Biological target: T1, Nav1.7 (or SCN9A) channel (Homo sapiens, UniProt Q15858)
T1 construct: expressed in transfected cells
Assay: Nav1.7 (hSCN9A) PatchXpress electrophysiology assay
Type: cell-based
Conditions: estimated IC50 calculated from single point electrophysiology data; PatchXpress platform; HEK cells stably expressing hSCN9A; held at V1/2 of inactivation; read-out: Nav1.7 EIC50
Protocol: The ability of the compounds of formula (I) to block the Nav1.7 (or SCN9A) channel were measured using the assay described below.
Human Embryonic Kidney (HEK) cells were transfected with an hSCN9A construct using lipofectamine reagent (Invitrogen), using standard techniques. Cells stably expressing the hSCN9A constructs were identified by their resistance to G-418 (400 μg/ml). Clones were screened for expression using the whole-cell voltage-clamp technique.
HEK cells stably transfected with hSCN9A were maintained in DMEM medium supplemented with 10% heat-inactivated fetal bovine serum and 400 μg/ml G-418 in an incubator at 37° C. with a humidified atmosphere of 10% CO2. For HTS, cells were harvested from flasks by trypsinization and replated in an appropriate multi-well plate (typically 96 or 384 wells/plate) such that confluence would be achieved within 24 hours of plating. For electrophysiological studies, cells were removed from the culture flask by brief trypsinization and re-plated at low density onto glass cover slips. Cells were typically used for electrophysiological experiments within 24 to 72 hours after plating.
Cover slips containing HEK cells expressing hSCN9A were placed in a bath on the stage of an inverted microscope and perfused (approximately 1 ml/minutes) with extracellular solution of the following composition: 138 mM NaCl, 2 mM CaCl2, 5.4 mM KCl, 1 mM MgCl2, 10 mM glucose, and 10 mM HEPES, pH 7.4, with NaOH. […] The osmolarity of the extracellular and intracellular solutions was 300 mOsm/kg and 295 mOsm/kg, respectively. All recordings were made at room temperature (22-24° C.) using AXOPATCH 200B amplifiers and PCLAMP software (Axon Instruments, Burlingame, Calif.).
hSCN9A currents in HEK cells were measured using the whole-cell configuration of the patch-clamp technique (Hamill et al., 1981). Uncompensated series resistance was typically 2 to 5 mega ohms and >85% series resistance compensation was routinely achieved. As a result, voltage errors were negligible and no correction was applied. Current records were acquired at 20 to 50 KHz and filtered at 5 to 10 KHz.
HEK cells stably transfected with hSCN9A were viewed under Hoffman contrast optics and placed in front of an array of flow pipes emitting either control or compound-containing extracellular solutions. All compounds were dissolved in dimethyl sulfoxide to make 10 mM stock solutions, which were then diluted into extracellular solution to attain the final concentrations desired. […] The voltage-dependence of inactivation was determined by applying a series of depolarizing prepulses (8 sec long in 10 mV increments) from a negative holding potential. The voltage was then immediately stepped to 0 mV to assess the magnitude of the sodium current. Currents elicited at 0 mV were plotted as a function of prepulse potential to allow estimation of the voltage at which 50% of the channels were inactivated (midpoint of inactivation or V½). Compounds were tested for their ability to inhibit hSCN9A sodium channels by activating the channel with a 20 msec voltage step to 0 mV following an 8 second conditioning prepulse to the empirically determined V½. Compound effect (% inhibition) was determined by difference in current amplitude before and after application of test compounds. For ease of comparison, “estimated IC-50” (EIC50) values were calculated from single point electrophysiology data by the following equation, (tested concentration, uM)×(100-% inhibition/% inhibition). Inhibition values <20% and >80% were excluded from the calculation.
Electrophysiological assays were conducted with PatchXpress 7000 hardware and associated software (Molecular Devices Corp). All assay buffers and solutions were identical to those used in conventional whole-cell voltage clamp experiments described above. hSCN9A cells were grown as above to 50%-80% confluency and harvested by trypsinization. […]

T1 sequence (Q15858 whole entry): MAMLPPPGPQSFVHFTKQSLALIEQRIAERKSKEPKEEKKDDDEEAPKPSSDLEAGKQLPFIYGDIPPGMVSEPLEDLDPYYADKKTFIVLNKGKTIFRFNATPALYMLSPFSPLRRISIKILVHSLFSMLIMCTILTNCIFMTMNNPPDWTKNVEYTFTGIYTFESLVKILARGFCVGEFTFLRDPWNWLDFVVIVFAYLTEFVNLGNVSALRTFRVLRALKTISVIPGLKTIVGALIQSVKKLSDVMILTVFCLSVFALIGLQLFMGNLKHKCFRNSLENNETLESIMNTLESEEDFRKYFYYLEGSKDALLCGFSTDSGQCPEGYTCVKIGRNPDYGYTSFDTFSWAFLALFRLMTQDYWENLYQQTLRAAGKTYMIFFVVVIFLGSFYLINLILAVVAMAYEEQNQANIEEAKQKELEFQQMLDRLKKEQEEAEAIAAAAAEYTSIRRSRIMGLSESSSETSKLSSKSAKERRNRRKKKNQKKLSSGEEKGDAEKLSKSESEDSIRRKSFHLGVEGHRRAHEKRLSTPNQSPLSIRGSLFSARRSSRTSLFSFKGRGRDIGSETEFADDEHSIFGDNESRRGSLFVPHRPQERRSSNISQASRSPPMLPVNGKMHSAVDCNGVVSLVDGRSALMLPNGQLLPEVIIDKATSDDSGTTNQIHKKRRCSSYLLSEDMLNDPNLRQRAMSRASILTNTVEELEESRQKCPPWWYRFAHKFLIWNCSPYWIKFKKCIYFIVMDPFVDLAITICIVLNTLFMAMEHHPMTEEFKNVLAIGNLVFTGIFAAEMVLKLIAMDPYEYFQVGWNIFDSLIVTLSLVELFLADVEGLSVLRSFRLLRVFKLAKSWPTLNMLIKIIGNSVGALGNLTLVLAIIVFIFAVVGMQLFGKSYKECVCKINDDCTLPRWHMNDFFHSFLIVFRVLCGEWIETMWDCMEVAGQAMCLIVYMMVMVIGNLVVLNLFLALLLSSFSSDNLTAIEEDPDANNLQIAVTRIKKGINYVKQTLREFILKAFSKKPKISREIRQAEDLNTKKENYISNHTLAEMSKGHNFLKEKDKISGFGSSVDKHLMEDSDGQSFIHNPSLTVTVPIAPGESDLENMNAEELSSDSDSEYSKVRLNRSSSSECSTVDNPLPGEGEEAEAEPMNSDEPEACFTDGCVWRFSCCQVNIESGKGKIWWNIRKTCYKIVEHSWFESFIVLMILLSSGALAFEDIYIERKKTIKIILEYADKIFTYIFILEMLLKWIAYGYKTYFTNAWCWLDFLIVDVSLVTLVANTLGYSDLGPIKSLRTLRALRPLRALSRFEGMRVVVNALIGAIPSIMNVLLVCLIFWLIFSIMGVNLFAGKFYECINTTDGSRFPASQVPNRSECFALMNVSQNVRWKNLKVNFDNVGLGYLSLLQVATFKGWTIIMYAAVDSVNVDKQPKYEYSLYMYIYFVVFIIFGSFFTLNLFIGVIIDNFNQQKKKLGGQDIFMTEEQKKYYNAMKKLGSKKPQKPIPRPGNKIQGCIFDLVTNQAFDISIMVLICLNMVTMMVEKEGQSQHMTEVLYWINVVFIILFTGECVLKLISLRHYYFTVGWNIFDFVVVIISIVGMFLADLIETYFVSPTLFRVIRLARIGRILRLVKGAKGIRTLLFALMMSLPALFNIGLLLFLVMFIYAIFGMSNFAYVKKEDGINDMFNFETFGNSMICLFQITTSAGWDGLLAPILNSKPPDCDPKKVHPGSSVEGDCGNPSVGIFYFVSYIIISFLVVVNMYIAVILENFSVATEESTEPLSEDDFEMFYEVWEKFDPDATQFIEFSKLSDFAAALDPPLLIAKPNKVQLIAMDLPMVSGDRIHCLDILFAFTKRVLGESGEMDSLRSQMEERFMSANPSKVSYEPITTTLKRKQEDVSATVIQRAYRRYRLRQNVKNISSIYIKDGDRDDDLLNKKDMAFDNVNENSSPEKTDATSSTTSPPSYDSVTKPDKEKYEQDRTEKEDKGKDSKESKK

| IC50 | Compound |
| --- | --- |
| 930 nM | O=S(=O)(Nc1nncs1)c1cc(Cl)c(Sc2cccc(C(F)(F)F)c2)cc1F [Example 1, 5-Chloro-2-fluoro-N-1,3,4-thiadiazol-2-yl-4-{[3-(trifluoromethyl)phenyl]thio}benzenesulfonamide] |
| 2100 nM | COc1ccc(Sc2cc(F)c(S(=O)(=O)Nc3nncs3)cc2Cl)cc1 [Example 2, 5-Chloro-2-fluoro-4-[(4-methoxyphenyl)thio]-N-1,3,4-thiadiazol-2-ylbenzenesulfonamide] |
| 1000 nM | COc1cccc(Sc2ccc(S(=O)(=O)Nc3ncns3)cc2C#N)c1 [Example 3, 3-Cyano-4-[(3-methoxyphenyl)thio]-N-1,2,4-thiadiazol-5-ylbenzenesulfonamide] |
| 1900 nM | COc1cccc(Sc2cc(F)c(S(=O)(=O)Nc3nncs3)cc2Cl)c1 [Example 4, 5-chloro-2-fluoro-4-[(3-methoxyphenyl)thio]-N-1,3,4-thiadiazol-2-ylbenzenesulfonamide] |
| 5080 nM | O=S(=O)(Nc1nncs1)c1cc(Cl)c(Sc2ccccc2C(F)(F)F)cc1F [Example 5, 5-chloro-2-fluoro-N-1,3,4-thiadiazol-2-yl-4-{[2-(trifluoromethyl)phenyl]thio}benzenesulfonamide] |
| 3300 nM | O=S(=O)(Nc1nncs1)c1cc(Cl)c(Sc2cccc(F)c2)cc1F [Example 6, 5-chloro-2-fluoro-4-[(3-fluorophenyl)thio]-N-1,3,4-thiadiazol-2-ylbenzenesulfonamide] |
| 3700 nM | O=S(=O)(Nc1nncs1)c1cc(Cl)c(Sc2ccccc2F)cc1F [Example 7, 5-chloro-2-fluoro-4-[(2-fluorophenyl)thio]-N-1,3,4-thiadiazol-2-ylbenzenesulfonamide] |
| 250 nM | COc1ccccc1Sc1cc(F)c(S(=O)(=O)Nc2nncs2)cc1Cl [Example 8, 5-chloro-2-fluoro-4-[(2-methoxyphenyl)thio]-N-1,3,4-thiadiazol-2-ylbenzenesulfonamide] |
| 2300 nM | O=S(=O)(Nc1nncs1)c1cc(Cl)c(Sc2ccc(F)c(F)c2)cc1F [Example 9, 5-chloro-4-[(3,4-difluorophenyl)thio]-2-fluoro-N-1,3,4-thiadiazol-2-ylbenzenesulfonamide] |
| 5200 nM | O=S(=O)(Nc1nncs1)c1cc(Cl)c(Sc2ccc(C(F)(F)F)cc2)cc1F [Example 10, 5-chloro-2-fluoro-N-1,3,4-thiadiazol-2-yl-4-{[4-(trifluoromethyl)phenyl]thio}benzenesulfonamide] |
| > 3000 nM | COc1ccc(Sc2ccc(S(=O)(=O)Nc3ncns3)cc2C#N)cc1 [Example 11, 3-cyano-4-[(4-methoxyphenyl)thio]-N-1,2,4-thiadiazol-5-ylbenzenesulfonamide] |
| 320 nM | COc1ccccc1Sc1ccc(S(=O)(=O)Nc2ncns2)cc1C#N [Example 12, 3-cyano-4-[(2-methoxyphenyl)thio]-N-1,2,4-thiadiazol-5-ylbenzenesulfonamide] |
| 840 nM | N#Cc1cc(S(=O)(=O)Nc2ncns2)ccc1Sc1cccc(C(F)(F)F)c1 [Example 13, 3-cyano-N-1,2,4-thiadiazol-5-yl-4-{[3-(trifluoromethyl)phenyl]thio}benzenesulfonamide] |
| 190 nM | N#Cc1cc(S(=O)(=O)Nc2ncns2)ccc1Sc1ccc(C(F)(F)F)cc1 [Example 14, 3-cyano-N-1,2,4-thiadiazol-5-yl-4-{[4-(trifluoromethyl)phenyl]thio}benzenesulfonamide] |
| 920 nM | N#Cc1cc(S(=O)(=O)Nc2ncns2)ccc1Sc1ccccc1F [Example 15, 3-Cyano-4-[(2-fluorophenyl)thio]-N-1,2,4-thiadiazol-5-ylbenzenesulfonamide] |
| 930 nM | N#Cc1cc(S(=O)(=O)Nc2ncns2)ccc1Sc1ccccc1C(F)(F)F [Example 16, 3-Cyano-N-1,2,4-thiadiazol-5-yl-4-{[2-(trifluoromethyl)phenyl]thio}benzenesulfonamide] |
| 2200 nM | N#Cc1cc(S(=O)(=O)Nc2ncns2)ccc1Sc1ccc(F)c(F)c1 [Example 17, 3-Cyano-4-[(3,4-difluorophenyl)thio]-N-1,2,4-thiadiazol-5-ylbenzenesulfonamide] |
| 70 nM | N#Cc1cc(S(=O)(=O)Nc2ncns2)ccc1Sc1ccc(C(F)(F)F)cc1-c1ccnnc1 [Example 18, 3-Cyano-4-{[2-pyridazin-4-yl-4-(trifluoromethyl)phenyl]thio}-N-1,2,4-thiadiazol-5-ylbenzenesulfonamide] |
| 45 nM | O=S(=O)(Nc1nncs1)c1cc(Cl)c(Sc2ccc(C(F)(F)F)cc2-c2ccnnc2)cc1F [Example 19, 5-Chloro-2-fluoro-4-{[2-pyridazin-4-yl-4-(trifluoromethyl)phenyl]thio}-N-1,3,4-thiadiazol-2-ylbenzenesulfonamide] |
| 33 nM | Nc1cc(-c2cc(C(F)(F)F)ccc2Sc2cc(F)c(S(=O)(=O)Nc3nncs3)cc2Cl)ccn1 [Example 20, 4-{[2-(2-Aminopyridin-4-yl)-4-(trifluoromethyl)phenyl]thio}-5-chloro-2-fluoro-N-1,3,4-thiadiazol-2-ylbenzenesulfonamide hydrochloride] |
| 5.8 nM | COc1cc(C(F)(F)F)ccc1Cc1ccc(S(=O)(=O)Nc2ncns2)cc1C#N [Example 21, 3-Cyano-4-[2-methoxy-4-(trifluoromethyl)benzyl]-N-1,2,4-thiadiazol-5-ylbenzenesulfonamide] |
| 140 nM | N#Cc1cc(S(=O)(=O)Nc2ncns2)ccc1Cc1ccc(C(F)(F)F)cc1-c1ccnnc1 [Example 22, 3-Cyano-4-[2-pyridazin-4-yl-4-(trifluoromethyl)benzyl]-N-1,2,4-thiadiazol-5-ylbenzenesulfonamide] |
| 72 nM | Nc1cc(-c2cc(C(F)(F)F)ccc2Sc2cc(F)c(S(=O)(=O)Nc3ncccn3)cc2Cl)ccn1 [Example 24, 4-{[2-(2-Aminopyridin-4-yl)-4-(trifluoromethyl)phenyl]thio}-5-chloro-2-fluoro-N-pyrimidin-2-ylbenzenesulfonamide] |
